The record followed here is patent US11827897B2, “Agricultural compositions and related methods” (Flagship Pioneering Innovations VI, LLC, priority 2018, dated 2023).

Where a SMILES comes first, the peptide text is derived from it.

In one data set the test system is BMS cell growth. The data set is described as follows: Cytotoxicity assay for concentrations not affecting apparent BMS cell growth. Type of data set: cell-based, Zea mays. As for the experimental part: (§1) To determine the effect of the flagellin peptide flg22 ([…] (SEQ ID NO: 14) (AnaSpec AS-62633) on PMP production by Zea mays BMS cells, 200 mL of BMS cell culture were prepared as described above. A cytotoxicity assay was carried out to determine the range of concentrations of flg22 that would not affect apparent BMS cell growth, and the flg22 concentration of 1 μM was determined to be compatible with cell growth. 30 mL of BMS cell suspension was distributed in individual 125 mL conical culture vented-flasks. In parallel, 89.55 mL of fresh media was mixed with 450 μL of 400 μM flg22 peptide suspension prepared in ultrapure sterile water to a final concentration of 2 μM. For the control conditions, 450 μL of ultrapure sterile water was added instead of flg22. Then, 30 mL of the media/flg22 or media/water mix was added to each flask containing 30 mL cell suspension (1:1 v/v) to a flg22 final concentration of 1 μM. Biological triplicates were performed for both flg22 treatment and control conditions. Control cells and cells treated with flg22 were grown at 24° C. with agitation (110 rpm) for 96 hours.
To determine the effect of salicylic acid (SA) on PMP production by Zea mays BMS cells, 200 mL of BMS cell culture were prepared as described above. […] 30 mL of BMS cell suspension was distributed into individual 125 mL conical culture vented-flasks. […]

A further data set concerns Zea mays BMS cells. The data set is described as follows: PMP production by Zea mays BMS cell culture after elicitation (NanoFCM). The conditions noted are these: 100 μM salicylic acid, 96 hours. It is filed as cell-based. The protocol:
Zea mays, Black Mexican Sweet (BMS) cells were purchased from the ABRC. BMS cells were grown in Murashige and Skoog basal medium pH 5.8, containing 4.3 g/L Murashige and Skoog Basal Salt Mixture (Sigma M5524), 2% sucrose (S0389, Millipore Sigma), 2 mg/L 2,4-dichlorophenoxyacetic acid (D7299, Millipore Sigma), 250 ug/L thiamine HCL (V-014, Millipore Sigma) and a 1× MS vitamin mix solution in ddH2O. The 1× vitamin mix solution contained niacin (N0761-100G, Millipore Sigma), pyroxidine hydrochloride (P6280-25G, Millipore Sigma), D-pantothenic acid hemicalcium salt (P5155-100G, Millipore Sigma), L-Asparagine (A4159-25G, Millipore Sigma), and myo-inositol (17508-100G, Millipore Sigma) at respective final concentrations of 1.3 mg/L, 250 μg/L, 250 μg/L, 130 mg/L, and 200 mg/L. Cells were grown in 1 L vented conical sterile flasks in dark conditions at 24° C. with agitation (110 rpm). For experiments, BMS cells were grown until cells were at a packed cell volume (PCV) of 20%. The PCV estimates cell density and is defined as the volume of cells divided by the total volume of the cell culture aliquot. The Packed Cell Volume is expressed as a percentage. The PCV was determined as follows: 5 mL of BMS cell suspension was centrifuged for 5 min at 3900 rpm, and the volume of the cell pellet was determined.
as §1, with “Then, 30 mL of the media/flg22 or media/water mix was added to each flask containing 30 mL cell suspension (1:1 v/v) to a flg22 final concentration of 1 μM. Biological triplicates were performed for both flg22 treatment and control conditions. Control cells and cells treated with flg22 were grown at 24° C. with agitation (110 rpm) for 96 hours.” left out

For data set [1], the system named is tomato plants grown in hydroponic culture. In words: PMP production by tomato plants grown in hydroponic culture after salicylic acid treatment. It is filed as in vivo, Solanum lycopersicum. The protocol:
Seeds of tomato (Solanum lycopersicum) cultivar Moneymaker were sterilized as follows: 70% ethanol for 3 min, 50% household bleach with 0.1% Triton X-100 (Sigma) for 20 min, washed three times with sterile deionized water. Sterilized seeds were germinated on moistened filter paper (Whatman®) in sterile Petri dishes sealed with medical tape (3M) and placed in a plant growth incubator (16 hr light, 23 C/21 C day/night) for seven days. Clear, square, pre-sterilized plastic containers (PhytoTech Labs) were assembled into hydroponic containers similar to what was previously described (Alatorre-Cobos et al., BMC Plant Biol., 14: Article No.: 69, 2014; FIG. 8A). Two containers were cut with sterile scalpels to assemble a support for a sterile polytetrafluoroethylene (PTFE) plastic mesh (McMaster-Carr). Plastic mesh was fixed to plastic supports with sterile staples. Small openings were cut into the plastic mesh and germinated seedlings threaded through the openings using sterile forceps. Each mesh supported five seedlings. 200 mL 1×MS growth medium (Murashige & Skoog basal salt mixture (Sigma) 4.3 g/L, sucrose 10 g/L, MES (Sigma) 0.5 g/L, pH 5.8 adjusted with KOH) was added to a whole plastic container serving as the base. Plastic support with mesh and threaded seedlings was placed into the base container. A second whole plastic container with a cut 2 cm^2 opening and sealed with medical tape was used as the lid. The two halves were sealed with medical tape and the containers transferred to a plant incubator (16 hr light, 23° C./21° C. day/night) for three weeks. […]
Culture medium (180 mL per container) was collected and centrifuged at 4,000×g for 30 min to pellet debris. […] Pellets were resuspended in 200 μL 1×PBS, pH 7.4 and analyzed using nano flow-cytometry (NanoFCM). PMP concentration (treatment: 4.06×10^11±1.41×10^11 PMP/mL (SEM); control: 5.44×10^10±2.49×10^10 PMP/mL (SEM)) and PMP size (treatment: 97±25 nm (SD); control: 82±27 nm (SD)) were determined by NanoFCM using concentration and size standards provided by the manufacturer (FIG. 8B).

Take `CC[C@H](C)[C@H](NC(=O)[C@H](CCC(N)=O)NC(=O)[C@H](CC(C)C)NC(=O)CNC(=O)[C@H](C)NC(=O)[C@H](C)NC(=O)[C@H](CC(=O)O)NC(=O)[C@H](CC(=O)O)NC(=O)[C@H](CCCCN)NC(=O)[C@H](C)NC(=O)[C@H](CO)NC(=O)[C@H](CC(N)=O)NC(=O)[C@@H](NC(=O)[C@H](CCCNC(=N)N)NC(=O)[C@H](CO)NC(=O)CNC(=O)[C@@H](NC(=O)[C@H](CO)NC(=O)[C@H](CC(C)C)NC(=O)[C@H](CCCNC(=N)N)NC(=O)[C@@H](N)CCC(N)=O)[C@@H](C)O)[C@@H](C)CC)C(=O)N[C@@H](C)C(=O)O` [flg22] (H-QRLSTGSRINSAKDDAAGLQIA-OH): the “concentration compatible with cell growth” value in the data set on BMS cell growth (Zea mays BMS cells) was 1 µM.
As to `O=C(O)c1ccccc1O` [salicylic acid], the “concentration compatible with cell growth” value with BMS cell growth (Zea mays) stood at 100 µM. For the same compound, the “effect on production of PMPs by BMS cells in culture” value with Zea mays BMS cells was “stimulates the production of PMPs”. For the same compound, the PMP concentration in the data set on Zea mays BMS cells (BMS cells, average of triplicates, DMSO control 1.47×10^11 PMP/mL) is on record as 1.84×10^11 PMP/mL; in data set [1] (three-week-old tomato plants, 1 mM salicylic acid for three days, ± SEM, n=2, DMSO control 5.44×10^10±2.49×10^10) it was 4.06×10^11±1.41×10^11 PMP/mL. In addition, the “mean PMP size” value with Zea mays BMS cells (BMS cells, control 87±15 nm) is recorded as 86.5±15 nm. For the same compound, the PMP size in data set [1] (1 mM salicylic acid for three days, ± SD, control 82±27 nm) came to 97±25 nm. The “effect on secretion of PMPs from the plant roots” value in data set [1] (hydroponically grown tomato, 1 mM salicylic acid) is listed as “enhance secretion of PMPs from the plant roots”.
